Test results: ChEMBL document CHEMBL2429809, “Novel peptide-doxorubucin conjugates for targeting breast cancer cells including the multidrug resistant cells” (J Med Chem, 2013); call rule not given here

Experiments:
MDA-MB-435 [1] = assay: Ratio of IC50 for human MDA-MB-435 cells to IC50 for human MDA-MB-435 cells in presence of verapamil; format: functional
MCF7 [2] = assay: Cellular uptake in human MCF7 cells at 5 uM after 2 hrs by FACS analysis in presence of NH2-WxEYAAQkFL-CONH2; format: ADME, cell-based; settings: mcf7, 2 h
HUVEC [3] = assay: Cellular uptake in human HUVEC cells at 5 uM after 2 hrs by FACS analysis; format: ADME, cell-based
MCF-10A [4] = assay: Cellular uptake in human MCF10A cells at 5 uM after 2 hrs by FACS analysis; format: ADME, cell-based
MDA-MB-435 [5] = assay: Ratio of IC50 for doxorubicin-resistant multidrug-resistant human MDA-MB-435 cells to IC50 for doxorubicin-resistant multidrug-resistant human MDA-MB-435 cells in presence of verapamil; format: functional
MDA-MB-435 [6] = assay: Cytotoxicity against doxorubicin-resistant multidrug-resistant human MDA-MB-435 cells after 48 hrs by MTT assay in presence of verapamil; format: functional, cell-based; settings: MDA-MB-435, 48 h
MCF7 [7] = assay: Cytotoxicity against human MCF7 cells after 48 hrs by MTT assay; format: functional, cell-based; settings: MCF7, 48 h
MDA-MB-435 [8] = assay: Cytotoxicity against human MDA-MB-435 cells after 48 hrs by MTT assay; format: functional, cell-based; settings: MDA-MB-435, 48 h
MDA-MB-435 [9] = assay: Cytotoxicity against doxorubicin-resistant multidrug-resistant human MDA-MB-435 cells after 48 hrs by MTT assay; format: functional, cell-based; settings: MDA-MB-435, 48 h
MCF7 [10] = assay: Cellular uptake in human MCF7 cells at 5 uM after 2 hrs by FACS analysis relative to control; format: ADME, cell-based; settings: mcf7, 2 h
HUVEC [11] = assay: Cytotoxicity against human HUVEC cells after 48 hrs by MTT assay; format: cell-based
MCF-10A [12] = assay: Cytotoxicity against human MCF10A cells after 48 hrs by MTT assay; format: cell-based
MDA-MB-435 [13] = assay: Cellular uptake in doxorubicin-resistant multidrug-resistant human MDA-MB-435 cells at 5 uM after 2 hrs by FACS analysis relative to doxorubicin; format: ADME, cell-based; settings: mda-mb-435, 2 h
MDA-MB-435 [14] = assay: Cellular uptake in human MDA-MB-435 cells at 5 uM after 2 hrs by FACS analysis relative to control; format: ADME, cell-based; settings: mda-mb-435, 2 h
MDA-MB-435 [15] = assay: Cytotoxicity against human MDA-MB-435 cells after 48 hrs by MTT assay in presence of verapamil; format: functional, cell-based; settings: MDA-MB-435, 48 h
MDA-MB-435 [16] = assay: Cytotoxicity against doxorubicin-resistant multidrug-resistant human MDA-MB-435 cells after 48 hrs by MTT assay relative to doxorubicin; format: functional
[17] = Half life in human serum at 100 uM after 48 hrs by RP-HPLC analysis; format: ADME, cell-free
MDA-MB-435 [18] = assay: Cellular uptake in doxorubicin-resistant multidrug-resistant human MDA-MB-435 cells at 5 uM after 2 hrs by FACS analysis; format: ADME, cell-based; settings: mda-mb-435, 2 h

Row | Drug uptake (MCF7 [2]) | Drug uptake (HUVEC [3]) | Drug uptake (MCF-10A [4]) | Drug uptake (MCF7 [10]) | fold change (FC) (MDA-MB-435 [13]) | Drug uptake (MDA-MB-435 [14]) | half-life at 100 µM [17] [h] | Drug uptake (MDA-MB-435 [18]) | Structure (SMILES) | Ratio IC50 (MDA-MB-435 [1]) | Ratio IC50 (MDA-MB-435 [5]) | IC50 (MDA-MB-435 [6]) [µM] | IC50 (MCF7 [7]) [µM] | IC50 (MDA-MB-435 [8]) [µM] | IC50 (MDA-MB-435 [9]) [µM] | IC50 (HUVEC [11]) [µM] | IC50 (MCF-10A [12]) [µM] | IC50 (MDA-MB-435 [15]) [µM] | Ratio IC50 (MDA-MB-435 [16])
1 | Active | Active | Active | Active | 3 | Active |  |  | CCCC[C@@H](NC(=O)[C@@H](N)Cc1c[nH]c2ccccc12)C(=O)N[C@@H](CCC(=O)O)C(=O)N[C@@H](C)C(=O)N[C@@H](C)C(=O)N[C@@H](Cc1ccc(O)cc1)C(=O)N[C@@H](CCC(N)=O)C(=O)N[C@H](CCCCNC(=O)CCCC(=O)OCC(=O)[C@]1(O)Cc2c(O)c3c(c(O)c2[C@@H](O[C@H]2C[C@H](N)[C@H](O)[C@H](C)O2)C1)C(=O)c1c(OC)cccc1C3=O)C(=O)N[C@@H](Cc1ccccc1)C(=O)N[C@@H](CC(C)C)C(N)=O | 1.3 | 1.3 | 14.4 | 19.1 | 18.6 | 19.7 | 50.9 | 40.5 | 15.5 | 
2 | Active | Active | Active | Active | 4.7 | Active | 2 | Active | CCCC[C@@H](NC(=O)[C@@H](N)Cc1c[nH]c2ccccc12)C(=O)N[C@@H](CCC(=O)O)C(=O)N[C@@H](C)C(=O)N[C@@H](C)C(=O)N[C@@H](Cc1ccc(O)cc1)C(=O)N[C@@H](CCC(N)=O)C(=O)N[C@H](CCCCNC(=O)CCCC(=O)N[C@H]1C[C@H](O[C@H]2C[C@](O)(C(=O)CO)Cc3c(O)c4c(c(O)c32)C(=O)c2c(OC)cccc2C4=O)O[C@@H](C)[C@H]1O)C(=O)N[C@@H](Cc1ccccc1)C(=O)N[C@@H](CC(C)C)C(N)=O | 1.3 | 1.3 | 3.1 | 0.9 | 1.5 | 5.4 | 42.3 | 35.1 | 0.83 | >4

Row | Structure (SMILES) | Drug uptake (MCF7 [2]) | Drug uptake (HUVEC [3]) | Drug uptake (MCF-10A [4]) | Drug uptake (MCF7 [10]) | fold change (FC) (MDA-MB-435 [13]) | Drug uptake (MDA-MB-435 [14]) | half-life at 100 µM [17] [h] | Drug uptake (MDA-MB-435 [18]) | Ratio IC50 (MDA-MB-435 [1]) | Ratio IC50 (MDA-MB-435 [5]) | IC50 (MDA-MB-435 [6]) [µM] | IC50 (MCF7 [7]) [µM] | IC50 (MDA-MB-435 [8]) [µM] | IC50 (MDA-MB-435 [9]) [µM] | IC50 (HUVEC [11]) [µM] | IC50 (MCF-10A [12]) [µM] | IC50 (MDA-MB-435 [15]) [µM] | Ratio IC50 (MDA-MB-435 [16])
3 | COc1cccc2c1C(=O)c1c(O)c3c(c(O)c1C2=O)C[C@@](O)(C(=O)CO)C[C@@H]3O[C@H]1C[C@H](N)[C@H](O)[C@H](C)O1 [DOXORUBICIN] | Active | Active |  |  |  |  |  |  |  |  | 1.56 |  | 0.6 | 21.9 | 1.1 | 1.2 | 0.15 | 
